From patent US20120035203A1, “BUTACLAMOL FOR THE TREATMENT OF AMYOTROPHIC LATERAL SCLEROSIS” (CAMBRIA PHARMACEUTICALS, INC., priority 2009, published 2012)
“Also recorded” adds a separate entry of the source. Peptide text beside a SMILES is read from it. * marks the point of attachment. Cbz = O=C(OCc1ccccc1)*

Experiments:
[1] = tested on: PC12 cells expressing wild-type SOD1; assay: MG132-induced SOD1 protein aggregation; assay type: cell-based; details: cells treated with MG132
Source text: (§1) In PC12 cells that express wild-type SOD1, SOD1 was diffusely localized throughout the cell (Matsumoto et al. J. Cell. Biol 2005, 171(1), 75-85). […] Therefore, these effects are likely to be due to MG132-induced proteasome inhibition, and not due to an off-target effect of MG132.

[2] = tested on: PC12 cells expressing G93A mutant SOD1; assay: MG132-induced SOD1 protein aggregation; assay type: cell-based
Protocol: as §1
The identification of a positive control is a crucial step in assay development. Thus, PC12 cells expressing G85R or G93A mutant SOD1 were treated with MG132 to induce protein aggregation, and then co-treated with candidate chemical suppressors of protein aggregation. […] Both compounds induce heat shock transcription factor HSF-1, which in turn induces the heat shock response (FIG. 4). Treatment with radicicol reduced the proportion of cells with aggregates from 75% to 25%, a sufficient difference to allow visual scoring for compounds with efficacy equal to or greater than radicicol.

[3] = tested on: PC12 cells expressing G85R SOD1; assay: mutant SOD1 direct protein aggregation assay; assay type: cell-based
Protocol: 4) Compounds could act directly on SOD1 in a manner that prevents mutant SOD1 aggregation. These possibilities were tested using an assay that directly measures protein aggregation. In addition, unlike the high throughput cytotoxicity protection assay, the protein aggregation assay is based on G85R SOD1; this broadens the scope of the screening strategy, and should eliminate compounds with highly specific activity (i.e., G93A SOD1 limited) against protein aggregation.
The identification of a positive control is a crucial step in assay development. Thus, PC12 cells expressing G85R or G93A mutant SOD1 were treated with MG132 to induce protein aggregation, and then co-treated with candidate chemical suppressors of protein aggregation.
To allow this assay to be used in a high-throughput manner, a Cellomics Arrayscan® high content microscopy system was used for screening and quantification. […] Because the most robust high content assays measure events on a per cell basis, it was necessary to select a fluorescent stain that marks whole cells to be used with a compatible stain that marks intracellular structures.

[4] = tested on: PC12 cells expressing G93A SOD1; assay: sensitivity of PC12 cells to proteasome inhibitor (cell viability, calcein-AM); assay type: cell-based
Protocol: FIG. 1. Proteasome inhibition is selectively toxic to PC12 cells expressing mutant G93A SOD1. Cell survival was determined using the viability stain calcein-AM.

[5] = tested on: PC12 cells expressing no SOD1, wild type SOD1 and G85R SOD1; assay: as above; assay type: cell-based; details: Rattus norvegicus, PC-12
[6] = tested on: PC12 cells that express mutant G93A SOD1 as a YFP fusion protein; assay: high throughput cytotoxicity protection assay; details: for Activity in Protection Assay: neuroleptic agent screening; for EC50: Rattus norvegicus, PC-12, read-out: Protection ED50; for Protection Efficacy Conc.: concentration at which the % viability is given; for protection of cell viability from MG132: 100 nM MG132 co-treatment
Protocol: This idea was tested by examining the sensitivity of PC12 cells to SOD1 aggregates in the presence and absence of proteasome inhibitor MG132. PC12 cells expressing no SOD1, wild type SOD1, G85R SOD1 or G93A SOD1 were grown with or without MG132 (FIG. 1). […] The ability of protein aggregates to induce cell death was examined by treating G93A SOD1-expressing cells with MG132 for 24 h, removing the MG132 by washing and assaying cell viability after another 24 h.
PC12 cells expressing G93A SOD1 were treated with 100 nM MG132 with or without co-treatment with geldanamycin or radicicol.

cellular toxicity = assay type: cell-based
Source text: Butaclamol is a diasteriomer and the two different isomeric forms can be physically separated.

[7] = tested on: healthy volunteers and chronic schizophrenic patients; details: cited from earlier work
[8] = tested on: G93A SOD1 transgenic mice; assay: transgenic G93A SOD1 ALS mouse model (open field, survival, neuropathology); assay type: in vivo; details: for Average life span: untreated 125.1±3.8
Source text: Subjects. […] The development of transgenic mice expressing G93A human SOD1 as a mouse model for the human disease has been regarded as a major breakthrough for development of ALS therapeutics. G93A SOD1 transgenic mice develop progressive hind limb weakness, muscle wasting, and neuropathological sequelae similar to those observed in patients with both sporadic and familial ALS. […] In addition, motor performance deteriorates as the disease progresses. The G93A SOD1 mouse model has played a prominent role in studying disease progression and especially for testing potential therapeutic agents, the latter in part because these animals have a shortened life span of approximately 126 days. In the present study, G93A SOD1 mice and littermate controls are bred from existing colonies at the Bedford VA Medical Hospital. The male G93A SOD1 mice are mated with B6SJL females and the offspring are genotyped by PCR using tail DNA. The number of SOD1 transgenes are assessed by PCR to ensure that transgene copy number remains constant. Mice are housed in micro-isolator cages in complete barrier facilities, and all studies are performed in these facilities. A 12 hour light-dark cycle is maintained and animals are given free access to food and water. Control and transgenic mice of the same age (±2 days) and from the same ‘f generation will be selected from multiple litters to form experimental cohorts (n=20 per group). Standardized criteria for age and parentage are used for placing individual mice into experimental groups/cohorts. Wild type mice are used for initial toxicity, tolerability, and pharmacokinetic studies and ALS mice are used for one-month tolerability studies.
Tolerability, Dosing, and Pharmacokinetics. The tolerable dose range and LD50 for butaclamol was determined in wild type mice by increasing the dose b.i.d. one-fold each injection. The route of administration was via i.p. administration, which was previously reported to produce robust effects in behavioral pharmacology studies, and starting dose range was guided by these prior studies (Lippmann et al., Life Sciences 16, 213, (1975); Humber et al., Mol. Pharmacol. 11, 833, (1975); Voith and Herr, Psychopharmacologia 42, 11, (1975)). One goal was to select a range of doses for the efficacy study starting ten fold below the maximum tolerated dose. Initial pharmacokinetic (pK) studies were conducted by giving animals a single dose, sacrificing them after 30 min, 1 h, 2 h, 4 h, 6 h, and 12 h, and dissecting brains and spinal cords and determining drug concentration in the target tissue. Drug steady-state level was determined in animals that had been dosed for 1 week prior to sacrifice. The range of dosing levels of 0.01, 0.1, and 1 mg/kg once a day were administered throughout the lives of the G93A mice.
Behavioral pharmacology. Behavioral testing for the transgenic G93A SOD1 mice were performed during the light phase of the diurnal cycle since these mice are sufficiently active during that time. Measurements were made for 30 minutes after 10 minutes of acclimation to the box (Opto-Varimex Unit, Columbus Instruments, Columbus, Ohio, USA). Counts of horizontal and vertical motion activity were monitored and quantitative analysis of locomotor activity (resting and ambulatory times), were assessed. The open field box was cleaned before testing each mouse. Each 30 minutes of testing was analyzed as three periods of 10 minute intervals to study the influence of novelty and measured behavior. Mice were coded and investigators were blinded to the genotype and analysis. Testing started on week 4 and performed every other week until the mice could no longer participate.
Efficacy studies. Efficacy was measured using endpoints that clearly indicate neuroprotective function. These include amelioration of degenerative changes in the spinal cord, improved motor function, and prolonged survival. […]

G93A mice = assay: climbing assay for extrapyramidal effects; assay type: in vivo, mouse; details: 0.01, 0.1, 1 mg/kg
Source text: A climbing assay was used to test for extrapyramidal effects.

[9] = high doses; cited from earlier work
[10] = tested on: [3H] dopamine binding sites; details: cited from earlier work
[11] = tested on: [3H] haloperidol binding sites; details: cited from earlier work

Molecule: CC(C)C[C@@H](C=O)NC(=O)[C@H](CC(C)C)NC(=O)[C@H](CC(C)C)NC(=O)OCc1ccccc1 [MG132] (Cbz-Leu-Leu-Leu-aldehyde)
- protein aggregation in wild-type SOD1 cells [1]: no aggregation was observed
- cells with protein aggregates ([2]; G93A SOD1 cells following treatment with MG132): ~75%
- cells containing protein aggregates ([3]; G85R SOD1 cells treated with MG132): up to 75%
- toxicity at 24 hr ([4]; 100 nM, 24 hr, any of the cell lines): no toxicity
- toxicity after 48 hours ([4]; 100 nM, 48 hours): selectively toxic to the G93A SOD1 cell line
- fold more sensitive than the other PC12 lines ([4]; G93A SOD1 cells vs no SOD1, wild type, G85R): approximately 5 fold
- IC50 ([4]; Rattus norvegicus, PC-12, read-out: IC50 (cell viability)): ~75 nM
- IC50 [5]: ~400 nM

Molecule: O=c1[nH]c2ccccc2n1C1CCN(CCCC(c2ccc(F)cc2)c2ccc(F)cc2)CC1 [Pimozide]
- Activity in Protection Assay [6]: Inactive

Molecule: CC(C)C[C@H](NC(=O)[C@H](Cc1ccccc1)NC(=O)c1cnccn1)B(O)O [bortezomib]
- sensitivity of PC12 cells to proteasome inhibition ([4]; compared with MG132): Qualitatively similar results

Molecule: Cc1nc2n(c(=O)c1CCN1CCC(c3noc4cc(F)ccc34)CC1)CCCC2 [Risperidone]
- Activity in Protection Assay [6]: Inactive

Molecule: CN(C)CC/C=C1/c2ccccc2Sc2ccc(Cl)cc21 [Chlorprothixene]
- Activity in Protection Assay [6]: Inactive

Molecule: O=C(CCCN1CCC(O)(c2ccc(Cl)cc2)CC1)c1ccc(F)cc1 [Haloperidol]
- Activity in Protection Assay [6]: Inactive

Molecule: CN1CCN(C2=Nc3cc(Cl)ccc3Nc3ccccc32)CC1 [Clozapine]
- Activity in Protection Assay [6]: Inactive

Molecule: OCCN1CCN(CCCN2c3ccccc3Sc3ccc(Cl)cc32)CC1 [Perphenazine]
- Activity in Protection Assay [6]: Inactive

Molecule: CC(C)(C)[C@]1(O)CCN2C[C@H]3c4ccccc4CCc4cccc(c43)[C@@H]2C1 [Butaclamol]
- IC50 (cellular toxicity): < 25000 nM
- limiting effects in Phase I ([7]; healthy volunteers, single and repeated doses up to 32 mg/day): sedation and extrapyramidal effects
- dose producing extrapyramidal effects in patients ([7]; human, in vivo): ≥ 10 mg/day
- neuroleptic activity in chronic schizophrenic patients ([7]; long-term, 50 mg/day): active neuroleptic agent
- Aggregation [3]: Inactive
- activity in the aggregation assay [3]: inactive
- gross lumbar spinal cord (atrophy) ([8]; 0.1 mg/kg, 120 days, WT 3.18±0.24×10^6, untreated 2.25±0.49×10^6, P<0.01): 2.97±0.31×10^6 μm^3
- ventral horn of the lumbar spinal cord (atrophy) ([8]; 0.1 mg/kg, 120 days, WT 7.29±0.41×10^5, untreated 5.28±0.63×10^5, P<0.05): 6.55±0.37×10^5 μm
- ventral horn neuronal count ([8]; 0.1 mg/kg, 120 days, WT 98.1±12.9, untreated 22.4±15.8, P<0.01): 57.3±18.2
- reactive astrogliosis (GFAP expression, lumbar spinal cord) ([8]; butaclamol treatment): ameliorated; also recorded: markedly attenuates reactive astrogliosis
- open field motor activity ([8]; high dose 1 mg/kg, throughout treatment, vs wild type or untreated G93A): significantly reduced motor activity outcome measures
- Average life span ([8]; high dose (1 mg/kg once a day, i.p.)): 123.7 ± 6.2 days
- open field behavior (distance traveled, resting time, ambulatory count, ambulatory time) ([8]; low dose 0.01 mg/kg, 6 week to 12-13 week): no significant effect
- Average life span ([8]; low dose (0.01 mg/kg once a day, i.p.)): 129.3 ± 4.1 days
- open field behavior ([8]; medium dose 0.1 mg/kg, 6 weeks to 12-13 weeks, 0.1 mg/kg): not significantly different from wild type mice
- Average life span ([8]; medium dose (0.1 mg/kg once a day, i.p.)): 141.0 ± 5.3 days
- extended survival as compared with untreated G93A mice ([8]; medium dose (0.1 mg/kg)): 12.7%
- extrapyramidal effects (G93A mice): No significant extrapyramidal effects
- activity in the protection assay [6]: showed activity
- EC50 [6]: ~840 nM
- Protection Efficacy Conc. [6]: 15 µM
- Activity in Protection Assay [6]: Active
- Protection Efficacy % Viability ([6]; rat): 80%

Molecule: CN1CCN(C2=Nc3ccccc3Oc3ccc(Cl)cc32)CC1 [Loxapine]
- Activity in Protection Assay [6]: Inactive

Molecule: (+) butaclamol
- effect on epinephrine-induced mortality [9]: antagonized epinephrine-induced mortality
- times more potent than the (−) isomer [10]: about one hundred
- times more potent than the (−) isomer [11]: one thousand
- activity in the protection assay [6]: showed activity

Molecule: CN1CCN(CCCN2c3ccccc3Sc3ccc(C(F)(F)F)cc32)CC1 [Trifluoperazine]
- Activity in Protection Assay [6]: Inactive

Molecule: C[C@@H]1C[C@H]2O[C@@H]2/C=C\C=C\C(=O)Cc2c(Cl)c(O)cc(O)c2C(=O)O1 [Radicicol]
- formation of protein aggregates ([2]; 100 nM MG132 co-treatment): reduced formation of protein aggregates
- IC50 (cellular toxicity): ~30000 nM
- Aggregation [3]: Moderate
- proportion of cells with aggregates ([3]; G85R or G93A mutant SOD1 cells, co-treated with MG132, 75% without radicicol): 25%
- suppression of MG132-induced mutant SOD1 aggregation ([3]; G93A SOD1 or G85R SOD1 cells, MG132 co-treatment): decreases mutant SOD1 aggregation
- protection of cell viability from MG132 [6]: protects
- protection of cell viability from MG132 ([6]; listed as radicicol): increased cell viability in a dose-dependent manner
- EC50 [6]: ~530 nM
- Protection Efficacy % Viability ([6]; at the concentration given): 80%
- Protection Efficacy Conc. [6]: 0.7 µM

Molecule: CN(C)CCCN1c2ccccc2Sc2ccc(Cl)cc21 [Chlorpromazine]
- Activity in Protection Assay [6]: Inactive
